From patent publication US7825279B2, “Fused ring dicationic anti-protozoan agents and their prodrugs” (The University of North Carolina at Chapel Hill, priority 2003, dated 2010)
pIC50: −log10 of the molar value. Read-outs that look alike come from different tables or passages of the source.

Key:
[1] = test system: virulent STIP90° strain of T.b.r.; assay: in vivo T.b.r. mouse model; settings: for In vivo T.b.r. Cures: cures/animals
poly dA-dT = assay: DNA ΔTm poly dA-dT; format: binding; parameters: unit not given here
[2] = test system: Trypanosoma brucei rhodesiense; assay: in vitro IC50 versus Trypanosoma brucei rhodesiense (T.b.r.); format: cell-based
Plasmodium falciparum = assay: in vitro IC50 versus Plasmodium falciparum (P.f.); format: cell-based
[3] = Trypanosoma brucei, RHODESIENSE
[4] = Plasmodium falciparum, in vitro, read-out: P.f. IC50

For Cl.Cl.N=C(N)Nc1ccc2c(c1)Cc1cc(NC(=N)N)ccc1-2 [Compound 5a, 2,7-Bis-guanidino-9H-fluorene Dihydrochloride], the “In vivo T.b.r. survival days” value [1] was 6 days, the “In vivo T.b.r. Cures” value [1] was 0/4 and the “DNA ΔTm poly dA-dT” value (poly dA-dT) was 13.6. It also gave a pIC50 [2, 3] of 7.62, a pIC50 (Plasmodium falciparum; Plasmodium falciparum, in vitro, read-out: IC-50 versus Plasmodium falciparum (p.f.)) of at least 8.00 and a pIC50 (Plasmodium falciparum; [4]) of 8.64.
Cl.Cl.N=C(N)Nc1ccc2c(c1)C(=O)c1cc(NC(=N)N)ccc1-2 [Compound 5b, 2,7-Bis-guanidinofluoren-9-one Dihydrochloride] was tested, and the “In vivo T.b.r. survival days” value [1] was 50.75 days, the “In vivo T.b.r. Cures” value [1] was 2/4 and the “DNA ΔTm poly dA-dT” value (poly dA-dT) was 6.1. The pIC50 ([2]; Dihydrochloride) was 8.14, the pIC50 [2, 3] was at least 7.89 and the pIC50 (Plasmodium falciparum; [4]) was 6.57.
For Cl.Cl.N=C(N)Nc1ccc2c(c1)C(=O)c1cc(NC(=N)N)ccc1C2=O [Compound 5c, 2,7-Bis-guanidinoanthraquinone Dihydrochloride], the “In vivo T.b.r. survival days” value [1] was 27 days, the “In vivo T.b.r. Cures” value [1] was 0/4 and the “DNA ΔTm poly dA-dT” value (poly dA-dT) was 7.2. It also gave a pIC50 [2, 3] of 6.89 and a pIC50 (Plasmodium falciparum; [4]) of 7.63.
With Cl.Cl.Cl.N=C(N)Nc1ccc2cc3ccc(NC(=N)N)cc3nc2c1 [Compound 5d, 3,6-bis-guanidinoacridine Trihydrochloride] the “In vivo T.b.r. survival days” value [1] was 16.25 days, the “In vivo T.b.r. Cures” value [1] was 0/4 and the “DNA ΔTm poly dA-dT” value (poly dA-dT) was 7.7. The pIC50 [2, 3] was 7.17 and the pIC50 (Plasmodium falciparum; [4]) was 6.64.
With CCOC(=O)NC(=N)Nc1ccc2c(c1)Cc1cc(NC(=N)NC(=O)OCC)ccc1-2 [Compound 7a, 2,7-Bis(N″-ethoxycarbonyl)guanidino-9H-fluorene] the “In vivo T.b.r. survival days” value [1] was 18.75 days, the “In vivo T.b.r. Cures” value [1] was 0/4 and the “DNA ΔTm poly dA-dT” value (poly dA-dT) was 0.3. The pIC50 [2] was 5.85 and the pIC50 (Plasmodium falciparum; in vitro, read-out: P.f. IC50) was 5.68.
In the case of CCOC(=O)NC(=N)Nc1ccc2c(c1)C(=O)c1cc(NC(=N)NC(=O)OCC)ccc1-2 [Compound 7b, 2,7-Bis(N″-ethoxycarbonyl)guanidinofluoren-9-one], the “In vivo T.b.r. survival days” value [1] was 6 days, the “In vivo T.b.r. Cures” value [1] was 0/4 and the “DNA ΔTm poly dA-dT” value (poly dA-dT) was −0.3. The pIC50 [2] was 5.92 and the pIC50 (Plasmodium falciparum; in vitro, read-out: P.f. IC50) was 5.49.
CCOC(=O)NC(=NC)Nc1ccc2c(c1)Cc1cc(NC(=NC)NC(=O)OCC)ccc1-2 [Compound 7c, 2,7-Bis(N″-ethoxycarbonyl-N′-methyl)guanidino-9H-fluorene] was tested, and the pIC50 [2] was 5.54 and the pIC50 (Plasmodium falciparum; in vitro, read-out: P.f. IC50) was 6.00.
With CCOC(=O)NC(=NC(C)C)Nc1ccc2c(c1)Cc1cc(NC(=NC(C)C)NC(=O)OCC)ccc1-2 [Compound 7d, 2,7-Bis(N″-ethoxycarbonyl-N′-iso-propyl)guanidino-9H-fluorene] the “In vivo T.b.r. survival days” value [1] was 17.75 days, the “In vivo T.b.r. Cures” value [1] was 0/4 and the “DNA ΔTm poly dA-dT” value (poly dA-dT) was −0.5. The pIC50 [2] was 5.60 and the pIC50 (Plasmodium falciparum; in vitro, read-out: P.f. IC50) was 5.20.
For CNC(=N)Nc1ccc2c(c1)Cc1cc(NC(=N)NC)ccc1-2 [Compound 8a, 2,7-Bis(N′-methyl)guanidino-9H-fluorene], the “In vivo T.b.r. survival days” value [1] was 52 days, the “In vivo T.b.r. Cures” value [1] was 3/4 and the “DNA ΔTm poly dA-dT” value (poly dA-dT) was 10.1. For the same molecule, the pIC50 [2] was 7.89 and the pIC50 (Plasmodium falciparum; in vitro, read-out: P.f. IC50) was 8.00.
With CC(C)NC(=N)Nc1ccc2c(c1)Cc1cc(NC(=N)NC(C)C)ccc1-2 [Compound 8b, 2,7-Bis(N-iso-propyl)guanidino-9H-fluorene] the “In vivo T.b.r. survival days” value [1] was 60 days, the “In vivo T.b.r. Cures” value [1] was 4/4 and the “DNA ΔTm poly dA-dT” value (poly dA-dT) was 9.3. For the same molecule, the pIC50 [2] was 7.39 and the pIC50 (Plasmodium falciparum; in vitro, read-out: P.f. IC50) was 7.45.
In the case of c1ccc(N=Nc2ccc3c(c2)Cc2cc(N=Nc4ccccc4)ccc2-3)cc1 [Compound 9a, 2,7-Bis[(phenylimino)amino]-9H-fluorene], the “In vivo T.b.r. survival days” value [1] was 7 days, the “In vivo T.b.r. Cures” value [1] was 0/4 and the “DNA ΔTm poly dA-dT” value (poly dA-dT) was 22. For the same molecule, the pIC50 [2, 3] was 6.53 and the pIC50 (Plasmodium falciparum; Plasmodium falciparum, read-out: P.f. IC50) was 6.32.
In the case of c1ccc(N=Nc2ccc3c(c2)Cc2cc(N=Nc4ccccn4)ccc2-3)nc1 [Compound 9b, 2,7-Bis[(2-pyridylimino)amino]-9H-fluorene], the “DNA ΔTm poly dA-dT” value (poly dA-dT) was 15.2, the pIC50 [2, 3] was 6.05 and the pIC50 (Plasmodium falciparum; [4]) was 5.92.
